According to ChEMBL document CHEMBL1149934, “(N-acyl-N-alkyl)glycyl borolysine analogs: A new class of potent thrombin inhibitors” (Bioorg Med Chem Lett, 1996):

Key:
[1] = biological target: T1, Prothrombin (Homo sapiens, UniProt P00734); assay: In vitro for inhibition of thrombin.
[2] = biological target: Plasminogen (Homo sapiens, UniProt P00747); assay: In vitro for inhibition of plasmin
[3] = biological target: Tissue-type plasminogen activator (Homo sapiens, UniProt P00750); assay: Compound was tested in vitro for inhibition of tissue plasminogen activator
[4] = biological target: Serine protease 1 (Homo sapiens, UniProt P07477); assay: Compound was tested in vitro for inhibition of trypsin
[5] = biological target: T1, Prothrombin; assay: Compound was tested in vitro for inhibition of thrombin

Sequence of Serine protease 1 (P07477 whole entry): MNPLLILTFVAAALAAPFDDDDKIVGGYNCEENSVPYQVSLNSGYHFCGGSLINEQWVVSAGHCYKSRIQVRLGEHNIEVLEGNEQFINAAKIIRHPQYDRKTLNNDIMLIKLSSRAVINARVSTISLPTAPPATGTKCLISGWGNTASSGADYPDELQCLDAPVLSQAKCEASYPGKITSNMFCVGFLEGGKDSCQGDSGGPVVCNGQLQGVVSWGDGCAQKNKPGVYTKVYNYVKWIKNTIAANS
Sequence of Plasminogen (P00747 97-580 limits assumed): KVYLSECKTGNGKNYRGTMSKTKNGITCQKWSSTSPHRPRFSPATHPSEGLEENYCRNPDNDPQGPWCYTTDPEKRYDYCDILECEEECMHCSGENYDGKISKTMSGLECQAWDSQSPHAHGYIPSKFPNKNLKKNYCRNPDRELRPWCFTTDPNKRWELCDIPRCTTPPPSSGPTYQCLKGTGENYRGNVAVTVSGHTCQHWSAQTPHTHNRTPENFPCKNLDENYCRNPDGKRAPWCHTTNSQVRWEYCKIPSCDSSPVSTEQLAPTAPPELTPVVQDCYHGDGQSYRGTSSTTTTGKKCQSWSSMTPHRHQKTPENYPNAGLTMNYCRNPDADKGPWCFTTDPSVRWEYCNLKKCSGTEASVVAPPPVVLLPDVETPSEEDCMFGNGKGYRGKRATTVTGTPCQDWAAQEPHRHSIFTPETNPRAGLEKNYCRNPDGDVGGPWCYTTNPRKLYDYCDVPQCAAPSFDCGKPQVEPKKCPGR
Sequence of Plasminogen (P00747 581-810 limits assumed): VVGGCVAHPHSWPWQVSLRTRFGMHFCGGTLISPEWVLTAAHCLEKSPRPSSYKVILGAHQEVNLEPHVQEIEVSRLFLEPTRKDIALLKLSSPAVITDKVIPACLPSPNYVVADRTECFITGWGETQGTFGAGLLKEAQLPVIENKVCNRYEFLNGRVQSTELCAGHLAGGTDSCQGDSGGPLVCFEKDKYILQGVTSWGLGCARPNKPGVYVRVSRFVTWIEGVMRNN
Sequence of Tissue-type plasminogen activator (P00750 whole entry): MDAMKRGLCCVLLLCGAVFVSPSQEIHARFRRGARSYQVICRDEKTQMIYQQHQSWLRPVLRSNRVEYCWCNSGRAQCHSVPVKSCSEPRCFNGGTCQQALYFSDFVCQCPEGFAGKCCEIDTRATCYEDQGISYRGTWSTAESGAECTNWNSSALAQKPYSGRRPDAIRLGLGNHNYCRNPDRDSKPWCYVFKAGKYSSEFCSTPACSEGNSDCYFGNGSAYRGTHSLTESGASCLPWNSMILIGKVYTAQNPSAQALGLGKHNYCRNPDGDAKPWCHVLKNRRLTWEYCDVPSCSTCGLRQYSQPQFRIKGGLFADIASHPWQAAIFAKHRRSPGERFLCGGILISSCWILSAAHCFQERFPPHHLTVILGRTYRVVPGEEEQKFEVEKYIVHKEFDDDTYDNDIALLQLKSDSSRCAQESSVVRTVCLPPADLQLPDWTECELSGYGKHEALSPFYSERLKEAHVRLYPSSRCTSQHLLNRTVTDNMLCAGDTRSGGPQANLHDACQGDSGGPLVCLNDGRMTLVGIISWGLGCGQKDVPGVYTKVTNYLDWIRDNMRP

Ki [1] [nM] | Ki [2] [nM] | Ki [3] [nM] | Ki [4] [nM] | IC50 [5] [nM] | Structure (SMILES)
16 |  |  |  |  | CN(CC(=O)N[C@@H](CCCCN)B(O)O)C(=O)Cc1ccccc1
4.68 |  |  |  |  | NCCCC[C@H](NC(=O)CN(Cc1ccccc1)C(=O)CCc1ccccc1)B(O)O
1.4 | 230 | 280 |  |  | NCCCC[C@H](NC(=O)CN(C(=O)CCc1ccccc1)c1ccccc1)B(O)O
 | 5.1 | 5.7 | 0.045 |  | CC(=O)N[C@H](Cc1ccccc1)C(=O)N1CCC[C@H]1C(=O)N[C@@H](CCCN=C(N)N)B(O)O
0.69 | 160 | 750 | 1.1 |  | NCCCC[C@H](NC(=O)CN(C(=O)CCc1ccccc1)C1CC1)B(O)O
123 |  |  |  |  | CN(CC(=O)N[C@@H](CCCCN)B(O)O)C(=O)c1ccccc1
1.71 | 250 | 3800 | 2.8 |  | CN(CC(=O)N[C@@H](CCCCN)B(O)O)C(=O)CCc1ccccc1
 |  |  |  | 90000 | NCCCC[C@H](NC(=O)CNC(=O)CCc1ccccc1)B(O)O
5.4 |  |  |  |  | CN(CC(=O)N[C@@H](CCCCN)B(O)O)C(=O)CCCc1ccccc1
1.6 | 140 | 3370 | 3.8 |  | CC(C)N(CC(=O)N[C@@H](CCCCN)B(O)O)C(=O)CCc1ccccc1
4.9 | 250 | 1100 | 8.4 |  | NCCCC[C@H](NC(=O)CN(C(=O)CCc1ccccc1)C1CCCCC1)B(O)O
2.1 | 14000 |  | 18 |  | CN=C(N)NCCC[C@H](NC(=O)CN(C)C(=O)CCc1ccccc1)B(O)O
0.16 | 460 | 51 | 0.61 |  | CN(CC(=O)N[C@@H](CCCN=C(N)N)B(O)O)C(=O)CCc1ccccc1
9.1 | > 10000 | 7000 | 21 |  | CN(CC(=O)N[C@@H](CCC/N=C\N)B(O)O)C(=O)CCc1ccccc1
0.42 | 170 | 680 | 2.5 |  | NCCCC[C@H](NC(=O)CN(CCc1ccccc1)C(=O)CCc1ccccc1)B(O)O
